Five molecules from publication PMC9736856, “Biological Investigation and Chemical Study of Brassica villosa subsp. drepanensis (Brassicaeae) Leaves” (Molecules, 2022) can be followed below.

Test [1] in a line: ABTS radical-scavenging assay. Conditions: cell free. How it is done: In this assay, a solution of ABTS radical cations was mixed with a potassium persulphate solution and stored at room temperature for 12 h. The obtained solution was diluted with ethanol, read to obtain an absorbance of 0.70 at 734 nm, and added to the tested sample (1–400 μg/mL). After 6 min, the absorbance was read at 734 nm. Ascorbic acid was the positive control. The ABTS radical-scavenging ability was calculated with this equation: [(A0−A1)/A0] × 100, where A0 is the absorbance of the control and A1 is the absorbance in the presence of the samples.

Test [2] is described as follows: β-carotene bleaching test. How it is done:
The β-carotene bleaching test was performed following the procedure previously described, using propyl gallate as the positive control. […] The microplate was located in a water bath at 45 °C and the absorbance was read at 470 nm against a blank at t = 0 and after 30 and 60 min of incubation.

A further test can be described thus: DPPH test. The conditions noted are these: positive control. How it is done:
Free radical-scavenging capacity was analysed through the ability of the total extract and the fractions to bleach the stable radical DPPH. […] Briefly, after 10 min at room temperature, the absorbance at λ = 517 nm of the DPPH reaction mixture containing different concentrations of […] extract (125-1000 μg/mL) in 1 mL of ethanol was recorded. Results, expressed as decrease in absorbance, represent the average ± S.D. of three independent experiments.
Background: DPPH is a stable violet radical that fades when it is reduced.

The test system of the next test is CaCo-2 cells. The test is described as follows: MTT assay, CaCo-2. In kind it is cell-based. The conditions noted are these: Homo sapiens, read-out: IC50 (MTT, cytotoxicity standard). How it is done: The human foreskin fibroblast cell line HFF-1 (ATCC® SCRC-1041.1) was maintained in DMEM supplemented with 15% v/v foetal bovine serum (FBS), 4.5 g/L glucose, 100 U/mL penicillin, and […] streptomycin. HFF-1 was used as an in vitro human model for preliminary toxicity screening. Mouse leukemic monocyte-macrophage cells RAW 264.7 (Sigma-Aldrich 91062702) were cultured in EMEM supplemented with 2 mM L-Glutamine (Euroclone, Milan, Italy), 1% non-essential amino acids, 10% FBS, and penicillin/streptomycin/amphotericin. […] was used as an in vitro model of LPS-induced inflammation. Human colon carcinoma cells CaCo-2 (ATCC®, HTB-37) were cultured in DMEM supplemented with 10% FBS, 1 mmol/L sodium pyruvate, 2 mmol/L L-glutamine, streptomycin ([…]), and penicillin (50 U/mL). […]
HFF-1, RAW 264.7, CaCo-2, DU145, 1321N1, and U87 MG cells were treated with different concentrations of total extract (25–50–100–150–250–500–1000 μg/mL), while RAW 264.7 cells were also treated with the fractions obtained from the total extract (EtOAc, n-BuOH, and H2O) at the same concentrations (25–50–100–150–250–500–1000 μg/mL) for 24 h. […] The absorbance of the converted formazan was measured using a microplate spectrophotometer reader (Titertek Multiskan, Flow Laboratories, Helsinki, Finland) at λ = 570 nm. […]
For orientation: Tetrazolium dyes change colour on reduction, which living cells bring about.

Test [3] is described as follows: SOD-like activity (superoxide anion scavenging, NADH oxidation). The conditions noted are these: positive control. How it is done: The scavenger effect of B. drepanensis extract and the fractions on superoxide anions was recorded as a decrease in absorbance at λ = 340 nm, as previously reported by Salerno et al.. […] SOD (80 mU) was used as a reference compound.

One may read the IC50 as the concentration that inhibits the measured activity by half.

Take `O=C1O[C@H]([C@@H](O)CO)C(O)=C1O` [Ascorbic acid, ascorbic acid]: in test [1], the “ABTS Test IC50” value was determined as 1.73 ± 0.06 µg/mL.
As for `CCCOC(=O)c1cc(O)c(O)c(O)c1` [Propyl gallate, propyl gallate], the “β-Carotene Bleaching Test IC50” value in test [2] (after 30 min of incubation) and in test [2] (after 60 min of incubation) was 0.09 ± 0.04 µg/mL in each case.
`Cc1c(C)c2c(c(C)c1O)CCC(C)(C(=O)O)O2` (stereo not drawn) [Trolox] registered an IC50 in “DPPH test” of 15 µM.
For the molecule `COc1cccc2c1C(=O)c1c(O)c3c(c(O)c1C2=O)C[C@@](O)(C(=O)CO)C[C@@H]3O[C@H]1C[C@H](N)[C@H](O)[C@H](C)O1` [doxorubicin, Doxorubicin], the IC50 in the test with CaCo-2 cells was 21 ± 0.3 µM.
For the molecule superoxide dismutase [SOD], the “SOD-like Activity IC50” value in test [3] is on record as 40 mU ± 0.85.
